{"source": "patent US9205064B2", "about": "“Methods for the diagnosis of oncological disorders using epimetabolic shifters, multidimensional intracellular molecules, or environmental influencers” (Berg LLC, priority 2009, dated 2015)", "key": {"Melanoma cells": {"system": "Melanoma cells", "assay": "Cell proliferation assay (live cell count) of building block combinations", "assay_type": "cell-based", "experimental": "This set of experiments used a cell proliferation assay to assess the effect of combining different building block molecules on cell proliferation.\nThe first study examined the effect of combining 4-Hydroxy-Benzoate with Benzoquinone. Cells were incubated for 48 hours, after which a cell count was performed for the live cells. Each test group was compared to the control, and each combination groups were compared to Benzoquinone control. The compounds were statistically analyzed for the addition of Benzoquinone.\nAdditional studies were performed testing additional molar ratios. For the first test 4-Hydroxybenzoic were tested at concentrations of 500 nM, 1 μM, and 50 μM. These concentrations were tested in combination with 2,3-Dimethoxy-5-methyl-p-benzoquinone (Benzo). The concentration of Benzo tested were 25 μM, 50 μM, and 100 μM. Melanoma cells were grown to 80% confluency and seeded in 6 well plates at a concentration of 40K cells per well. The cells were treated with CoQ10, 4-Hydroxybenzoate, Benzo, and a combination of 4-Hydroxybenzoate/Benzo.\nA T-test was performed with p<0.05 as statistically significant."}, "[1]": {"system": "neonatal fibroblast cells", "assay": "Cell proliferation assay (coulter counter)", "assay_type": "cell-based", "conditions": "HB 500 nM, 5 μM, 25 μM; benzoquinone 25, 50, 100 μM; 24 hours", "protocol": "A cell proliferation assay was also performed on neonatal fibroblast cells. The concentrations of HB tested were 500 nM, 5 μM, and 25 μM. HB was also tested in combination with benzoquinone at a concentrations of 25 μM, 50 μM, and 100 μM. Melanoma cells were seeded at 40 k cells per well and were treated for 24 hours. The cells were trypsinized and quantified using a coulter counter."}, "Caspase-3": {"system": "Caspase-3", "assay": "Western blot of Caspase-3 in Skmel-28 cells treated with CoQ10 building block components", "assay_type": "cell-based", "experimental": "(§1) Skmel-28 melanoma cells were cultured in DMEM/F12 supplemented with 5% Fetal Bovine Serum (FBS) and 1× final concentration of Antibiotics. The cells were grown to 85% confluency and treated with building block components for 3, 6, 12 and 24 hours. The cells were then pelleted and a Western blot analysis was performed.\n(§2) In the Western Blot Analysis, the cells were pelleted in cold PBS, lysed, and the protein levels were quantified using a BCA protein assay. The whole cell lysate was loaded in a 4% loading 12% running Tris-HCl gel. The proteins were then transferred to a nitrocellulose paper then blocked with a 5% milk Tris-buffered solution for 1 hour. The proteins were then exposed to primary antibodies (Bcl-2 and Caspase-3) overnight. The nitrocellulose paper was then exposed to Pico Chemilluminescent for 5 min and the protein expression was recorded. After exposure, actin was quantified using the same method. Using ImageJ the levels of protein expression were quantified. A t-Test was used to analyze for statistical significance."}, "Bcl-2": {"system": "Bcl-2", "assay": "Western blot of Bcl-2 in Skmel-28 cells treated with CoQ10 building block components", "assay_type": "cell-based", "experimental": "as §1, §2"}, "HDFa cells": {"system": "HDFa cells", "assay": "SeaHorse XF analyzer OCR and ECAR", "assay_type": "cell-based, human", "description": "Environmental influencers (e.g., MIMs or Epi-shifters) may also be identified by changes in cellular energetics. One example of the measurement of cellular energetics are the real-time measures of the consumption of molecular oxygen and/or the change in pH of the media of a cell culture. For example, the ability of a potential epi-shifter to modulate the metabolic state of a cell may be analyzed using, for example, the XF24 Analyzer (Seahorse, Inc.). This technology allows for real time detection of oxygen and pH changes in a monolayer of cells in order to evaluate the bioenergetics of a cell microenvironment. The XF24 Analyzer measures and compares the rates of oxygen consumption (OCR), which is a measure of aerobic metabolism, and extracellular acidification (ECAR), which is a measure of glycolysis, both key indicators of cellular energetics.\n(SeaHorse Biosciences Inc, North Billerica, Mass.).\nIn this experiment, the OCR and extracellular acidification rate (ECAR) in normal cells lines were obtained in the presence and absence of CoQ10 to determine baseline values. It was observed that in its native nutrient environment, the basal OCR rates in normal cells lines are different, and are usually a function of the physiological roles of the cells in the body.\nFIGS. 29 and 30 describe the OCR in HDFa and HASMC cells grown in physiologically normal glucose (about 4.6 mM) and high glucose (hyperglycemic) conditions.\nTable 53, below, describes the ECAR values (mpH/min) in HDFa cells in the presence or absence of CoQ10 under normoxic and hypoxic conditions at 5.5 mM and 22 mM glucose."}, "[2]": {"conditions": "500 nM, 1 μM, 25 μM and 50 μM, all time points"}}}
{"smiles": "O=C(O)c1ccc(O)cc1", "note": "[4-Hydroxybenzoate, 4-hydroxy-benzoate]", "values": [{"measurement": "cell number compared to the control", "setting": "Melanoma cells; 48 hours", "result": "significant decrease in cell number"}, {"measurement": "cell proliferation", "setting": "Melanoma cells; HB 500 nM, 1 μM, 50 μM, p<0.05", "result": "significant decrease in cell proliferation"}, {"measurement": "reduction in fibroblast cells", "setting": "[1]", "result": "did not show a significant reduction"}]}
{"smiles": "CC(=O)SCCNC(=O)CCNC(=O)[C@H](O)C(C)(C)COP(=O)(O)OP(=O)(O)OC[C@H]1O[C@@H](n2cnc3c(N)ncnc32)[C@H](O)[C@@H]1OP(=O)(O)O", "note": "[Acetyl-CoA]", "values": [{"measurement": "Caspase-3 expression", "setting": "Caspase-3; [2]", "result": "no significant observed"}, {"measurement": "Bcl-2 expression", "setting": "Bcl-2; [2]", "result": "no significant observed reduction"}]}
{"smiles": "N[C@H](Cc1ccc(O)cc1)C(=O)O", "note": "[D-Tyrosine]", "values": [{"measurement": "Caspase-3 expression", "setting": "Caspase-3; 5 μM, 12 hour", "result": "increase"}]}
{"smiles": "N[C@@H](Cc1ccc(O)cc1)C(=O)O", "note": "[L-Tyrosine]", "values": [{"measurement": "Bcl-2 expression", "setting": "Bcl-2; 500 μM and 5 μM, 24 hours", "result": "statistically significant decrease"}]}
{"smiles": "C[C@@](O)(CCO)CC(=O)O", "note": "[Mevalonic Acid, mevalonic acid]", "values": [{"measurement": "Caspase-3 expression", "setting": "Caspase-3; [2]", "result": "no significant"}, {"measurement": "Bcl-2 expression", "setting": "Bcl-2; [2]", "result": "no significant reduction"}]}
{"smiles": "COc1cc(C(O)C(=O)O)ccc1O", "note": "(stereo not drawn) [VMA, 3-methoxy-4-hydroxymandelate]", "values": [{"measurement": "apoptotic effect (Bcl-2, Caspase-3)", "setting": "Bcl-2; 100 nM, 250 nM, 500 nM, 1 μM, 25 μM, 50 μM and 100 μM", "result": "no statistically significant apoptotic effect"}]}
{"smiles": "COC1=C(OC)C(=O)C(C/C=C(\\C)CC/C=C(\\C)CC/C=C(\\C)CC/C=C(\\C)CC/C=C(\\C)CC/C=C(\\C)CC/C=C(\\C)CC/C=C(\\C)CC/C=C(\\C)CCC=C(C)C)=C(C)C1=O", "note": "[compound 31510]", "values": [{"measurement": "ECAR", "setting": "HDFa cells; 50 μM, Hypoxia (5.5 mM)", "result": 5, "unit": "mpH/min"}, {"measurement": "ECAR", "setting": "HDFa cells; 50 μM, Hypoxia (22 mM)", "result": 6, "unit": "mpH/min"}, {"measurement": "ECAR", "setting": "HDFa cells; 50 μM, Normoxia (5.5 mM)", "result": 6, "unit": "mpH/min"}, {"measurement": "ECAR", "setting": "HDFa cells; 50 μM, Normoxia (22 mM)", "result": 5, "unit": "mpH/min"}, {"measurement": "ECAR", "setting": "HDFa cells; 100 μM, Hypoxia (5.5 mM)", "result": 5, "unit": "mpH/min"}, {"measurement": "ECAR", "setting": "HDFa cells; 100 μM, Hypoxia (22 mM)", "result": 8, "unit": "mpH/min"}, {"measurement": "ECAR", "setting": "HDFa cells; 100 μM, Normoxia (5.5 mM)", "result": 6, "unit": "mpH/min"}, {"measurement": "ECAR", "setting": "HDFa cells; 100 μM, Normoxia (22 mM)", "result": 5, "unit": "mpH/min"}]}
